Laboratory results published in patent US20070243144A1, “External Preparation” (TOYO SHINYAKU CO., LTD, priority 2004, published 2007).

System: HFSKF-II cells (human skin fibroblast)
Assay: Ability to suppress the generation of active oxygen caused by ultraviolet radiation
Type: cell-based
Conditions: 100 μg/mL in medium with 0.03 wt % hydrogen peroxide; UV A 365 nm 4.4 J/cm^2; DCFH-DA fluorescence; six wells
Experimental: HFSKF-II cells (human skin fibroblast; obtained from RIKEN) were seeded in a 96-well plate at a concentration of 2×10^5 cells/well, and using 0.1 mL of standard medium (Ham's F-12 medium containing 15% of fetal calf serum; manufactured by Sigma-Aldrich), these were incubated for 24 hours at 37° C. in a 5% CO2 atmosphere. Next, the plate was washed three times with PBS by the method of Hong Wang et al. (Free Radic. Biol. Med., 1999). Then the medium was replaced with a standard medium containing 100 μM of DCFH-DA (2′,7′-dichlorofluorescein diacetate; manufactured by Sigma-Aldrich) and this was incubated for 10 minutes at 37° C. in a 5% CO2 atmosphere. Next, the plate was washed three times with PBS. […] UV A is a UV radiation that readily passes through skin, and is known to promote skin aging.
Next, the fluorescence F of the DCFH-DA that is emitted due to the presence of active oxygen was measured with a multispectrometer (Varioscan; excitation wavelength: 485±10 nm, detection wavelength: 530±10 nm; Thermo Electron Corporation), and the suppression rate of the active oxygen generation due to UV radiation when the pueraria flower extract was employed was calculated from the following formula. […] Fsample: The fluorescence measured after the medium was replaced with a standard medium that contains pueraria flower extract and UV A was irradiated. […]

For `COC1=C(OC)C(=O)C(C/C=C(\C)CC/C=C(\C)CC/C=C(\C)CC/C=C(\C)CC/C=C(\C)CC/C=C(\C)CC/C=C(\C)CC/C=C(\C)CC/C=C(\C)CCC=C(C)C)=C(C)C1=O` [Coenzyme Q10, coenzyme Q10], the “Suppression rate of the active oxygen generation (%)” value was 30.6 ± 7.7%.
